# Assay results published in patent US10653691B2, “Method of promoting remyelination” (Case Western Reserve University, priority 2013, dated 2020).
# “Also recorded” adds a separate entry of the source.
# What was measured:
# [1] = mice, intraperitoneal
# Experimental: After 1 or 6 h, […] of plasma was collected then each animal was perfused with PBS. Brains were collected, weighed, and rinsed with PBS. Water (0.5 ml) was added to the brain samples, which were then homogenized. Plasma and brain samples were each diluted fivefold with blank rat plasma. Three hundred microlitres of internal standard solution was added to the samples, vortexed, and centrifuged. Five microlitres of each sample was injected into an API-4000Qtrap mass spectrometer and quantified (Climax Labs).
# [2] = test system: corpus callosum of mouse pups; test: Developmental myelination in mouse pups; type: in vivo; settings: for number of CC1+ oligodendrocytes in the lateral corpus callosum / portion/length of corpus callosum covered by MBP+ fibres: pups treated daily for 4 days from postnatal day 2, clobetasol 2 mg/kg, miconazole 10 mg/kg i.p., vs vehicle
# From the text: On postnatal day 6 the pups were anaesthetized using ketamine and xylazine and euthanized by transcardial perfusion with 4% PFA. Tissue was fixed overnight in 4% PFA, equilibrated in 30% sucrose, and embedded in OCT. Sections (20 μm) were cut and processed for CC1 and MBP immunohistochemistry. ImageJ was then used to count and measure area of the corpus callosum as well as measure the extent of the corpus callosum length covered by MBP1 processes. Eight coronal sections containing corpus callosum rostral to the hippocampus from at least three animals per group were used for these analyses. To quantitate extent of MBP in the corpus callosum, a line was drawn through the centre of the corpus callosum from the lateral tip to the dorsal most extent of MBP expression in the corpus callosum. The length of this line was measured and then the dorsal-most point of the line was extended to the dorsal tip of the corpus callosum and measured to yield the length of the lateral callosum. The two numbers were divided to get the MBP/corpus callosum proportion. A two-tailed t-test was used to compare drug—with vehicle-treated groups.
# mouse OPCs = test: OPC differentiation into MBP+ oligodendrocytes; type: cell-based; settings: for number of MBP+ oligodendrocytes by duration of treatment: 24, 48, 56 and 72 h; for number of MBP+ oligodendrocytes at 72 h by time of treatment start: treatment started at 0, 16, 24 or 48 h
# Experimental: EpiSC-derived OPCs were seeded onto poly-D-lysine 96-well Viewplate or CellCarrier plates (PerkinElmer) coated with laminin (Sigma, L2020; 10 μgml^−1) using electronic multichannel pipetors. For the primary screen, 30,000 cells were seeded per well in screening medium (DMEM/F12 supplemented with N2 (R&D Systems), B-27 (Life Technologies), neurotrophin 3 (R&D Systems; 10 ng ml^−1), cAMP (Sigma; 50 μM), IGF-1 (R&D Systems; 100 ng ml^−1), noggin (R&D Systems; 100 ngml^−1)) and allowed to attach for 2 h before addition of drug. NIH Clinical Collection I and II drugs were added to assay plates with 0.1 ml pin replicators (Molecular Devices, Genetix; X5051), resulting in a final primary screening concentration of 5 μM. Thyroid-hormone-positive controls and DMSO vehicle controls were included in each assay plate. Cells were incubated under standard conditions (37° C., 5% CO2) for 3 days and fixed with 4% paraformaldehyde (PFA) in phosphate buffered saline (PBS). Fixed plates were permeabilized with 0.1% Triton X-100 and blocked with 10% donkey serum (v/v) in PBS for 2 h. Cells were labelled with MBP antibodies (Abcam, ab7349; 1:100) for 1 h at room temperature (˜22° C.) followed by detection with Alexa Fluorconjugated secondary antibodies (1:500) for 45 min. Nuclei were visualized by DAPI staining (Sigma; 1 μgml^−). All plates for the primary screen were processed and analyzed simultaneously to eliminate variability.
# For the 5 μM in vitro screen, stained plates were imaged on the Opera confocal imaging system (PerkinElmer) and a set of 24×10 fields were collected from each well, resulting in an average of 10,000 cells being scored per well. For the dose-response (6.7 μM, 5 μM, 3.3 μM, 1.7 μM, 666 nM, 500 nM, and 333 nM) in vitro assays, plates were imaged on the Operetta High Content Imaging and Analysis system (PerkinElmer) and a set of 14×20 fields captured from each well resulting in an average of 3,300 cells being scored per well. […] Each traced nucleus region was then expanded by 50% and cross-referenced with the mature myelin protein (MBP or PLP1) stain to identify oligodendrocyte nuclei, and from this the percentage of oligodendrocytes was calculated. Processes emanating from oligodendrocyte nuclei were identified using the CSIRO2 analysis module within a custom Acapella script. Maximum mean process length (denoted ‘process length’) and mean process intensity (denoted ‘process intensity’) were generated on a per well basis. For the 5 μM in vitro screen, values were calculated and normalized to 100 for thyroid hormone (positive control)-treated wells and to 0 for DMSO(vehicle)-treated wells, on a per plate basis.
# OPCs = test: HCA of astrocyte induction (GFAP); type: cell-based, mouse; settings: 72 h, in vitro
# Experimental: For the astrocyte experiments in FIG. 3C, the experimental setup was identical to the PLP1-based primary validation screen except plates were stained for GFAP (DAKO, Z0334; 1:5,000). BMP4 (R&D Systems; 50 ng ml^−1) and LIF (Millipore; 10^3 U ml^−1) were used as the positive control for astrocyte induction. Assay plates were imaged on the Operetta High Content Imaging and Analysis system and a set of 14×20 fields captured. Columbus Data Management and Analysis System software (PerkinElmer) was used to quantify the percentage of GFAP1 astrocytes in each well using a method similar to that developed for oligodendrocytes.
# [3] = test system: PLP139-151- or MOG35-55-sensitized lymph node cells; test: Ex vivo lymphocyte recall assays; type: cell-based, mouse
# MOG35-55 EAE mouse model = test: MOG35-55 chronic progressive EAE model; settings: for areas of myelin disruption in the white matter (luxol fast blue, MBP immunohistochemistry): cervical spinal cords; for functional improvement (disease score): daily i.p. for 10 days from peak of disease; for MBP expression and extent of demyelination in the spinal cord: histology after treatment, vs vehicle; for average clinical scores and cumulative clinical scores: larger treatment cohort, n=12 to 18 mice per group; for immune cell infiltration into the lesion areas (IBA1 staining): spinal cords after treatment
# Experimental: Immunohistochemistry was performed as previously described. In short, tissue sections or whole slices were washed three times in PBS, blocked in PBS containing Triton X-100 (0.1%) and normal donkey serum (NDS, 2% for sections and 10% for cerebellar slices) and incubated with primary antibody overnight. For MBP immunohistochemistry, the primary antibody solution consisted of 2% NDS, 2% bovine serum albumin, and 0.1% saponin. For all other antibodies, the primary antibody solution consisted of 2% NDS and 0.1% Triton X-100. Primary antibodies used included rat anti-MBP (Abcam, ab7349; 1:100), mouse anti-APC CC1 clone (Millipore, MABC200; 1:500), and rabbit anti-IBA1 (Wako Chemicals, 019-19741; 1:1,000). The tissue was then washed in PBS and incubated in secondary antibodies for […]. Secondary detection was performed with Alexa Fluor-conjugated secondary antibodies (1:500) for 1 h. Luxol fast blue staining was performed as previously described.
# Samples were processed as previously described. In short, samples were osmicated, stained en bloc with uranyl acetate, and embedded in EMbed 812, an Epon-812 substitute (EMS). Sections (1 μm) were cut and stained with toluidine blue and visualized on a light microscope (Leica DM5500B). Additional thin sections were cut, carbon coated and imaged either on a JEOL JEM-1200-EX electron microscope or a T12 electron microscope (FEI).
# EAE was induced by immunizing 10-week-old C57BL/6 female mice with […] injection of […] complete Freund's adjuvant emulsion (Hooke Laboratories). One hour after immunization, mice were given 100 ng of pertussis toxin by 100 μl intraperitoneal injection. A second dose of pertussis toxin was administered the next day. EAE onset was monitored daily and scored using a clinical scale where 0 represented no abnormality; 1, limp tail; 2, limp tail and hind limb weakness; 3, hind limb paralysis; 4, hind limb paralysis and forelimb weakness; and 5, moribund. […] Once mice reached peak of disease ˜day 15; clinical score=3) they were randomized into treatment groups, and drug or vehicle (DMSO in saline) was administered intraperitoneally daily for 10 days (n=12-16 mice per group). […] Experimenters were blinded to the identity of the treatments and animals were scored daily. Cumulative disease scores for each animal were calculated during the treatment period, and a two-tailed t-test compared drug—with vehicle-treated groups. The extent of recovery for each animal was calculated as the difference between the peak disease score and the score at the end of each experiment, and a two-tailed t-test was used to compare each treatment with vehicle. External validation of MOG35-55 EAE experiments (n=12 mice per group) was performed at Hooke Laboratories with experimenters blinded to the identity of the substances.
# ERK1/2 = test: Western blot of ERK1/2 phosphorylation in mouse fibroblasts; type: cell-based; settings: non-neural cell type, treated for 1 h
# [4] = 2 mg/kg daily i.p., postnatal day 2-6
# [5] = miconazole 10 mg/kg, clobetasol 2 mg/kg, benztropine 10 mg/kg
SMILES,crossing of the blood-brain barrier [1],"mortality of treated pups [2, 4]","sickness and body weight of treated pups [2, 4]",number of CC1+ oligodendrocytes in the lateral corpus callosum [2],portion/length of corpus callosum covered by MBP+ fibres [2],number of MBP+ oligodendrocytes by duration of treatment (mouse OPCs),number of MBP+ oligodendrocytes at 72 h by time of treatment start (mouse OPCs),astrocyte formation from OPCs (OPCs),proliferation and secretion of cytokines by sensitized lymph node cells ([3]; 10^−9-10^−5 M),"areas of myelin disruption in the white matter (luxol fast blue, MBP immunohistochemistry) (MOG35-55 EAE mouse model)",functional improvement (disease score) (MOG35-55 EAE mouse model; [5]),MBP expression and extent of demyelination in the spinal cord (MOG35-55 EAE mouse model),average clinical scores and cumulative clinical scores (MOG35-55 EAE mouse model),"overt toxicity to the animals (MOG35-55 EAE mouse model; miconazole 10 mg/kg, clobetasol 2 mg/kg, benztropine 10 mg/kg, daily i.p. 10 days)",immune cell infiltration into the lesion areas (IBA1 staining) (MOG35-55 EAE mouse model),ERK1/2 phosphorylation in mouse fibroblasts (ERK1/2),modulation of immune cell function ([3]; summary of immune cell survival and function assays)
C[C@H]1C[C@H]2[C@@H]3CCC4=CC(=O)C=C[C@]4(C)[C@@]3(F)[C@@H](O)C[C@]2(C)[C@@]1(O)C(=O)CCl [clobetasol],readily crossed the blood-brain barrier,some animals of the cohort died before end of treatment,"exhibited sickness on the basis of this treatment, with low body weight",significant increase in the number of CC1^+ oligodendrocytes; also recorded: marked increase in the number of CC1-positive oligodendrocytes,significantly larger portion of the corpus callosum was populated by MBP^+ fibre tracts; also recorded: significant increase in the length of the corpus callosum covered with aligned MBP^+ fibres,"progressive, time-dependent increase",dependent on drug treatment within the first 24 h of differentiation,neither drug showed a significant impact on astrocyte formation,altered naïve T-cell differentiation and both the proliferation and secretion of cytokines,decrease in areas of myelin disruption in the white matter,marked improvement in function,restoration of MBP expression and a reduction in the extent of demyelination in the spinal cord,significant reduction of disease and functional improvement,no drugs showed any overt evidence of toxicity,"small reduction of immune cell infiltration into the lesion areas, especially in clobetasol-treated animals, but not an abrogation",–,–
Clc1ccc(COC(Cn2ccnc2)c2ccc(Cl)cc2Cl)c(Cl)c1 (stereo not drawn) [miconazole],–,–,–,significant increase in the number of CC1^+ oligodendrocytes; also recorded: marked increase in the number of CC1-positive oligodendrocytes,significantly larger portion of the corpus callosum was populated by MBP^+ fibre tracts; also recorded: significant increase in the length of the corpus callosum covered with aligned MBP^+ fibres,"progressive, time-dependent increase",dependent on drug treatment within the first 24 h of differentiation,neither drug showed a significant impact on astrocyte formation,–,decrease in areas of myelin disruption in the white matter,marked improvement in function,restoration of MBP expression and a reduction in the extent of demyelination in the spinal cord,significant reduction of disease and functional improvement,–,small reduction of immune cell infiltration into the lesion areas,no increase of ERK1/2 phosphorylation,did not modulate immune cell function
